Several values for one entry are separate records, joined by “and”; a condition that tells them apart may be missing. Equal entries are not always repeated. Each block holds one compound with its values, some of them ahead of it.
Columns and labels:
[1] = test system: Plasmodium falciparum iRBC; assay: Parasite viability assay (parasitemia by flow cytometry, Giemsa blood smears); type: cell-based; conditions: for morphology of treated iRBC by blood smear: STAD-2 1 μM, H89 30 μM, light microscopy at 48 hours post-treatment, versus DMSO
Procedure: 25 μL were removed from each well every 24 hours post-treatment, and samples were stained with Hoechst 33342 and analyzed by flow cytometry. Blood smears were made every 24 hours, fixed with methanol, and stained with Giemsa for analysis by light microscopy. Images were acquired using a Nikon Eclipse E400 microscope fitted with a Nikon Digital Sight DS-5M-L1 camera (Nikon Instruments Inc.).

[2] = test system: Plasmodium falciparum blood stage parasites; assay: Dose-response curves (parasitemia by Hoechst flow cytometry); type: cell-based
Procedure: Synchronous ring-stage or late-stage iRBC at <0.5% parasitemia were brought up to 4% hematocrit in complete culture medium and transferred to a 24-well tissue culture plate in 1 mL aliquots. […] 25 μL were removed from each well at 0, 24, 48, and 72 hours, stained with 100 μL 2 μg/mL Hoechst 33342 for 10 minutes at 37°C, and analyzed by flow cytometry as described above. IC50 values were determined according to parasitemia at 24 hours post-treatment. Parasitemia was defined as the percent of Hoechst-positive RBCs as measured by flow cytometry.

[3] = test system: late-stage iRBC; assay: Hemolysis (oxyhemoglobin absorbance at 415 nm); type: cell-based, Plasmodium falciparum; conditions: late-stage iRBC diluted in uRBC, 0 to 8% parasitemia, 1 μM, 6 hours, versus DMSO, n = 4
Procedure: Synchronous late-stage iRBC were mixed with uRBC in order to achieve a series of samples with stepwise decreasing parasitemia. […] The plate was incubated at 37°C under standard gas conditions for 6 hours. Following incubation, all samples were transferred to Eppendorf tubes and centrifuged at 700 rcf for 5 minutes to pellet cells. 100 μL of supernatant was removed from each tube and transferred to a 96-well, flat-bottom tissue culture plate. Oxyhemoglobin absorbance was measured at 415 nm using a SpectraMax Plus microplate spectrophotometer with SoftMax Pro 5.4 software (Molecular Devices, LLC).

[4] = molecular target: T1, cytoadherence linked asexual protein 3.1, or CLAG3 (Plasmodium falciparum, UniProt O77310); assay: Immunoprecipitation/mass spectrometry with biotin-conjugated peptide; type: binding; conditions: 3D7 parasite supernatant, 16 hours at 4°C, streptavidin beads, MS-MS (S2 Table)
T1 construct: 4 X 10^8 3D7 parasites were lysed with cold 0.04% saponin in PBS; endogenous in cells; host or cells: P. falciparum 3D7 parasites (parasite supernatant of lysate)
Procedure: 4 X 10^8 3D7 parasites were lysed with cold 0.04% saponin in PBS for 10 minutes. The supernatant was, subsequently, separated from the pellet by centrifugation at 4000 rcf for 10 minutes at 4°C. This supernatant consisted of the RBC cytoplasm and parasite exported proteins (termed host supernatant). The pellet consisted of parasite cells; these were further lysed with […]. The soluble fraction (termed parasite supernatant) of the parasite cells was separated from the insoluble fraction by centrifuging the parasite lysate at 4000 rcf for 10 minutes at 4°C. The host supernatant and the parasite supernatant were each incubated with biotin-conjugated STAD-2 or STAD-2 scramble for 16 hours at 4°C. Peptide-protein complexes were precipitated using streptavidin-coupled Dynabeads (Life Technologies). Dynabeads were subsequently washed four times with 1X PBS, and the precipitated peptide-protein complexes were solubilized in SDS-PAGE sample buffer. Proteins were, then, fractionated on 10% SDS-PAGE, excised, and identified by MS-MS (Proteomics and Mass Spectrometry Core Facility, University of Georgia).
Sequences identified by MS-MS were searched against the NCBI non-redundant protein databases for Plasmodium falciparum (NCBI taxonomy #5833) and human (#9606)/Plasmodium (#5820) and analyzed by Mascot. Results from both database searches were cross-referenced and compiled. […]

[5] = test system: uninfected red blood cells (uRBC); conditions: 1 μM FITC-conjugated peptide, 6 hours, 37°C, 4% hematocrit, Hoechst/FITC flow cytometry
Procedure: (§2) Synchronous ring-stage or late-stage infected red blood cells (iRBC) and uninfected red blood cells (uRBC) were brought up to 4% hematocrit in complete culture medium. FITC-conjugated peptides were added to a final concentration of 1 μM, and cultures were incubated for 6 hours at 37°C under standard gas conditions. Following incubation, 25 μL cell mixture was removed and treated with 100 μL 2 μg/mL Hoechst 33342 for 10 minutes at 37°C. Cells were subsequently washed once in 1 mL 1X PBS, resuspended in 300 μL 1X PBS, and analyzed for Hoechst and FITC staining on a Beckman Coulter CyAn flow cytometer. 500,000 events were collected at a rate of 15,000–20,000 events per second. Data was analyzed using FlowJo X single cell analysis software (FlowJo LLC).

[6] = test system: HsPKA-RII; assay: Immunofluorescence assay, colocalization with PKA regulatory subunit; type: cell-based, H. sapiens; conditions: late-stage iRBC, 1 μM FITC-conjugated peptide, 2 hours, anti-HsPKA RII antibody
Procedure: (§1) A culture of primarily late-stage iRBC was incubated with STAD-2 or DMSO as described above. Following incubation, 50 μL of cell mixture was removed and washed twice with 1 mL 1X PBS. Cells were then resuspended in 200 μL 4% paraformaldehyde/0.0075% glutaraldehyde and transferred to a CC2 glass chamber slide (Nalge Nunc International). Cells were fixed for 30 minutes at room temperature and gently washed twice with 300 μL 1X PBS. Fixed cells were subsequently permeabilized with 0.1% Triton X-100/PBS for 10 minutes and washed. Cells were then treated with […] sodium borohydride/PBS for 10 minutes to reduce any free aldehyde groups, washed with 1X PBS, and blocked for 1 hour at room temperature with 3% BSA/PBS. Following blocking, cells were brought up in 200 μL primary antibody and left shaking at 4°C overnight. The following morning, cells were washed three times, for 10 minutes each, to remove excess primary antibody and brought up in 200 μL secondary antibody for 1 hour at room temperature. After washing, cells were counterstained with 200 μL 0.5 μg/mL Hoechst 33342 for 3 minutes at room temperature and washed a final time before removing slide chambers, mounting a coverslip with Fluoro-Gel, and sealing. Rat anti-PfPKA-R was generously donated by Gordon Langsley (Institut Cochin) and diluted 1:300 in 3% BSA/PBS. Goat anti-HsPKA-RII (Abcam) was diluted to 10 μg/mL in 3% BSA/PBS. […]

[7] = test system: late-stage iRBC
Procedure: Late-stage cultures were brought up to 4% hematocrit in complete culture medium and transferred to a 48-well tissue culture plate at 250 μL per well. Plates were spun at 330 rcf for 5 minutes, the medium was aspirated, and cultures were resuspended in either 250 μL complete culture medium or 200 μM furosemide in complete culture medium for 10 minutes at 37°C. Plates were again spun at 330 rcf, aspirated, and resuspended in 250 μL 1 μM STAD-2, 5% D-Sorbitol, 200 μM furosemide, 130 mM glycerol, 6 μM AgNO3, or a combination of the aforementioned for 10 minutes or 2 hours. Following incubation, 25 μL were removed, stained, and analyzed by flow cytometry as described above. Ten-minute time points served as controls for 5% D-Sorbitol and furosemide activities while effects on STAD-2 uptake were determined using 2-hour time points.

[8] = test system: PfPKA-R; assay: Immunofluorescence assay, colocalization with PKA regulatory subunit; type: cell-based, Plasmodium falciparum; conditions: late-stage iRBC, 1 μM FITC-conjugated peptide, 2 hours, anti-PfPKA R antibody
Procedure: as §1

[9] = test system: Plasmodium falciparum infected red blood cells (iRBC); assay: STAD-2 permeability: uptake of FITC-conjugated peptides by flow cytometry; type: cell-based
Procedure: as §2

T1 sequence (O77310 25-1417): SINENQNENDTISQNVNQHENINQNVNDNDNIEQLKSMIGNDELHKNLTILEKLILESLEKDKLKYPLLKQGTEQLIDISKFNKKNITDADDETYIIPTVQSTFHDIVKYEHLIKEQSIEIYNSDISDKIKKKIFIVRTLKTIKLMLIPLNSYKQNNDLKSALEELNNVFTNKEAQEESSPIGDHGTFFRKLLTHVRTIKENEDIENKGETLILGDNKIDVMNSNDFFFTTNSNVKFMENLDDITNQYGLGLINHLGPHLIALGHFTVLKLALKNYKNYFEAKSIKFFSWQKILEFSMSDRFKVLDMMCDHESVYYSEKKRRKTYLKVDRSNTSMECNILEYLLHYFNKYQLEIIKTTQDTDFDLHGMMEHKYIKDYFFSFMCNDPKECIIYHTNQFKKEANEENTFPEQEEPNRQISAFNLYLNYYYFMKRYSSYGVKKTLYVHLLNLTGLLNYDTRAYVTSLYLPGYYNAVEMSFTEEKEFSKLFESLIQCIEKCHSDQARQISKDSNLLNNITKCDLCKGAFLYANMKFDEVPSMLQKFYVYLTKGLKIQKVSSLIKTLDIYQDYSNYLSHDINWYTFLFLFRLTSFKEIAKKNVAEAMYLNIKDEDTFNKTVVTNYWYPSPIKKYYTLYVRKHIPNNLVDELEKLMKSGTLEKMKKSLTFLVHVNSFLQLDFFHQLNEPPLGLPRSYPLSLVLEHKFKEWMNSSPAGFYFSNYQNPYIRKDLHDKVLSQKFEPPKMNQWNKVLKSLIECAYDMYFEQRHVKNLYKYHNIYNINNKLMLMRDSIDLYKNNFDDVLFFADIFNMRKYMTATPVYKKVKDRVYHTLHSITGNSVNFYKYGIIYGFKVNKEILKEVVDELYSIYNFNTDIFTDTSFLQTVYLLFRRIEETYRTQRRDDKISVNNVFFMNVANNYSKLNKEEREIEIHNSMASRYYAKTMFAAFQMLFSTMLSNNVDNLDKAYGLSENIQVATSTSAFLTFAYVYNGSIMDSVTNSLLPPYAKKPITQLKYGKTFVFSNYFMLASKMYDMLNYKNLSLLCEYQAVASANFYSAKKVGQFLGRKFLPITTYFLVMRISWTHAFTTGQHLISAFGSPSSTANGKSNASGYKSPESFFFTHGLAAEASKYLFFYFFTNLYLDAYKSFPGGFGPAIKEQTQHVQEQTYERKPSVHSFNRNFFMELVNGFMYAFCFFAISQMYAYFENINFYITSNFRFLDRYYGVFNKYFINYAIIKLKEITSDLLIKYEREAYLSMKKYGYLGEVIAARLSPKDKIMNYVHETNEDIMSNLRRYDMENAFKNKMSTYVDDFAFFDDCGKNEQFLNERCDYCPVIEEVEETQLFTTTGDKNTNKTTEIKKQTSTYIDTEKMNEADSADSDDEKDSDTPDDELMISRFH

IC50 ([2]; late-stage CS2 parasites, serial dilutions 100-0.78 μM, 24 hours, Hoechst flow cytometry, n = 2 (S5 Fig), read-out: H89 in vitro IC50): 30 µM and ~30 µM
Compound: O=S(=O)(NCCNC/C=C/c1ccc(Br)cc1)c1cccc2cnccc12 [H89]
morphology of treated iRBC by blood smear ([1]; late-stage iRBC): clear morphological changes including the notable absence of a digestive vacuole

Compound: CC(C)C[C@H](NC(=O)[C@H](C)NC(=O)[C@]1(C)CCCC=CCCC[C@](C)(NC(=O)[C@H](CO)NC(=O)[C@@H](NC(=O)[C@H](CC(C)C)NC(=O)[C@H](Cc2ccccc2)NC(=O)[C@H](CCCCN)NC(=O)[C@H](C)NC(=O)[C@H](CC(C)C)NC(=O)[C@H](CCCCN)NC(=O)[C@H](CCCCN)NC(=O)CCNC(=S)Nc2ccc3c(c2)C(=O)OC32c3ccc(O)cc3Oc3cc(O)ccc32)C(C)C)C(=O)N[C@@H](C)C(=O)N[C@@H](CC(C)C)C(=O)N[C@@H](CCCCN)C(=O)N1)C(=O)N[C@@H](CCCCN)C(N)=O [STAD-2]
iRBC lysis (oxyhemoglobin A415 in medium) [3]: significantly greater than controls
association with CLAG3 by IP/MS [4]: showed association
permeability in uRBC [5]: only a nominal amount
colocalization with HsPKA-RII [6]: did not definitively colocalize
STAD-2 uptake, co-incubation with AgNO3 ([7]; 1 μM STAD-2 + 6 μM AgNO3 (AQP1 inhibitor), 2 hours, flow cytometry, n = 2): no apparent change in STAD-2 uptake
STAD-2 uptake, co-treatment with furosemide alone ([7]; 1 μM STAD-2 + 200 μM furosemide (PSAC inhibitor), 2 hours, pre-treatment with medium, flow cytometry, n = 3): no discernible effect on STAD-2 uptake
STAD-2 uptake, co-incubation with glycerol ([7]; 1 μM STAD-2 + 130 mM glycerol (AQP3 solute), 2 hours, flow cytometry, n = 2): no apparent change in STAD-2 uptake
STAD-2 uptake, co-incubation with D-Sorbitol ([7]; 1 μM STAD-2 + 5% D-Sorbitol (PSAC solute), 2 hours, flow cytometry, n = 2): slight reduction of STAD-2 uptake
STAD-2 uptake, furosemide pre-incubation then co-treatment ([7]; 200 μM furosemide 10 minutes pre-incubation, then 1 μM STAD-2 + 200 μM furosemide 2 hours, p = 0.0557, n = 3): consistent but statistically insignificant decrease
colocalization with PfPKA-R [8]: did not definitively colocalize
viability of P. falciparum strains ([1]; late-stage CS2, 3D7, Dd2, Hb3, 1 μM FITC-conjugated peptide, parasitemia at 24, 48, 72 hours, n = 3 (S3 Fig)): reduced viability in CS2, Dd2, and Hb3 strains
parasitemia 6 hours post-treatment ([1]; late-stage iRBC, 1 μM FITC-conjugated peptide, 6 hours, flow cytometry, n = 7 (S4 Fig)): Reduction in parasitemia was evident
morphology of treated iRBC by blood smear ([1]; late-stage iRBC): did not differ morphologically from DMSO controls
parasitemia relative to DMSO controls over 72 hours ([1]; synchronous ring- and late-stage iRBC, 1 μM, flow cytometry every 24 hours for 72 hours, significant by 48 hours (p<0.001), n = 3): significantly decreased parasitemias
effect on parasitemia relative to DMSO-treated controls, dose-response ([2]; ring- and late-stage iRBC, 0, 0.5, 1, 2, 5 μM, 24 hours post-treatment, n = 3): concentration-dependent decrease in parasitemia
uptake by synchronous ring-stage and late-stage iRBC ([9]; 1 μM FITC-conjugated peptide, 6 hours, flow cytometry, 2way ANOVA p<0.001, n = 3-6): significantly increased uptake
permeability in iRBC ([9]; CS2 iRBC, 1 μM FITC-conjugated peptide, 6 hours, 37°C, 4% hematocrit, Hoechst/FITC flow cytometry): significant permeability
permeability to iRBC among stapled peptides (median fluorescence intensity) ([9]; iRBC, 1 μM stapled FITC-conjugated peptides, 6 hours, flow cytometry, n = 2-6 (Fig 7)): clearly permeable
permeability across parasite strains ([9]; late-stage CS2, Dd2, 3D7, Hb3 iRBC, 1 μM FITC-conjugated peptide, 2 hours, flow cytometry, n = 2 (S1 Fig)): comparable levels of permeability
time to near-maximum levels of uptake ([9]; late-stage iRBC, 1 μM FITC-conjugated peptide for 1, 2, 3 or 6 hours, flow cytometry, n = 3 (S2 Fig)): ≤ 3 h

Source: paper PMC4444124, “The Stapled AKAP Disruptor Peptide STAD-2 Displays Antimalarial Activity through a PKA-Independent Mechanism” (PLoS ONE, 2015)
